From patent US8399683B2 (TetraLogic Pharmaceuticals, priority 2008, dated 2013)

Experiments:
[1] = target: T1, XIAP BIR-3 (Homo sapiens, UniProt P98170); test: Fluorescence polarization binding affinity to XIAP BIR-3 (competition with AbuRPF-K(5-Fam)-NH2); conditions: 5 nM labeled peptide, 40 nM BIR3, 15 min at RT, pH 7.5; reported as ranges
T1 construct: 40 nM of the respective IAP BIR3
Method in brief: (§1)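 Test peptides at varied concentrations competed with 5 nM fluorescent Smac-mimetic tracer for 40 nM BIR3 domain, 15 min at RT in 0.1M potassium phosphate pH 7.5 with […] bovine g-globulin. Polarization (mP) read at 485/520 nm; KD reported in bins (A=<0.1 μM, B=0.1–1 μM, C>1–10 μM, D=>10 μM).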

[2] = target: cIAP-1 BIR-3 (Homo sapiens, UniProt Q13490); test: Fluorescence polarization binding affinity to cIAP-1 BIR-3 (competition with AbuRPF-K(5-Fam)-NH2); conditions: 5 nM labeled peptide, 40 nM BIR3, 15 min at RT, pH 7.5; reported as ranges; read-out: KD (c-IAP-1 BIR3)
Chain of cIAP-1 BIR-3 (Q13490 266-352 limits assumed): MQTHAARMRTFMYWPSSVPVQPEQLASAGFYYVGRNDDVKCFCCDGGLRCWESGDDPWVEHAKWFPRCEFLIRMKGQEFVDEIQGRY
Method in brief: as §1

[3] = test system: SK-OV-3 cells; test: Growth inhibition of ovarian cancer cell line SK-OV-3 (MTT assay, cell survival); format: cell-based; conditions: Homo sapiens, drug concentration that results in 50% cell survival, 72 hrs incubation, reported as ranges
Method in brief: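 After overnight seeding in McCoy's medium with 10% FBS, SK-OV-3 cells were exposed to compound at 0.003-10 μM for 72 hrs at 37° C. MTT was then added for 3 h, with DMSO solubilization and OD read at 535 nm. CC50 is the concentration giving 50% survival relative to untreated control, reported as ranges.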

T1 sequence (P98170 241-356 limits assumed): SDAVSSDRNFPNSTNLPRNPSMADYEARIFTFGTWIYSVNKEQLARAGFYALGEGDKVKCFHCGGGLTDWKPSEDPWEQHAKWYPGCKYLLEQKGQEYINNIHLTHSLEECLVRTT

Row | Kd [1] | Kd [2] | SMILES | CC50 [3]
1 | < 100 nM | < 100 nM | CN[C@@H](C)C(=O)N[C@H](C(=O)N1CC[C@@H]2[C@H]1[C@@H](c1c[nH]c3cc(F)ccc13)CN2C(C)=O)[C@@H](C)OC [Example 66, N-{1-[4-Acetyl-6-(6-fluoro-1H-indol-3-yl)-hexahydro-pyrrolo[3,2-b]pyrrole-1-carbonyl]-2-methoxy-propyl}-2-methylamino-propionamide] | < 100 nM
2 | < 100 nM | < 100 nM | CC(=O)N1C[C@H](c2c[nH]c3cc(F)ccc23)[C@@H]2[C@H]1CCN2C(=O)[C@@H](NC(=O)[C@H](C)N)C1CCCCC1 [Example 94] | 1000 to 10000 nM
3 | 100 to 1000 nM | < 100 nM | CN[C@@H](C)C(=O)N[C@H](C(=O)N1CC[C@@H]2[C@H]1[C@@H](c1c[nH]c3cc(F)ccc13)CN2C)C1CCCCC1 [Example 17, N-{1-Cyclohexyl-2-[6-(6-fluoro-1H-indol-3-yl)-4-methyl-hexahydro-pyrrolo[3,2-b]pyrrol-1-yl]-2-oxo-ethyl}-2-methylamino-propionamide] | 100 to 1000 nM
4 | < 100 nM | < 100 nM | CN[C@@H](C)C(=O)N[C@H](C(=O)N1CC[C@H]2NC[C@H](c3c[nH]c4ccccc34)[C@H]21)[C@@H](C)OC [Example 90] | 1000 to 10000 nM
5 | 100 to 1000 nM | < 100 nM | CN[C@@H](C)C(=O)N[C@@H](COC)C(=O)N1CC[C@@H]2[C@H]1[C@@H](c1c[nH]c3cc(F)ccc13)CN2C(C)=O [Example 64, N-{2-[4-Acetyl-6-(6-fluoro-1H-indol-3-yl)-hexahydro-pyrrolo[3,2-b]pyrrol-1-yl]-1-methoxymethyl-2-oxo-ethyl}-2-methylamino-propionamide] | 100 to 1000 nM
6 | < 100 nM | < 100 nM | CN[C@@H](C)C(=O)N[C@H](C(=O)N1CC[C@@H]2[C@H]1[C@@H](c1c[nH]c3cc(F)ccc13)CN2Cc1ccccc1)C1CCCCC1 [Example 107] | 100 to 1000 nM
